{
  "source": "paper PMC6332320",
  "about": "“Factors Influencing Oral Bioavailability of Thai Mango Seed Kernel Extract and Its Key Phenolic Principles” (Molecules, 2015)",
  "test_system": "Caco-2 monolayer",
  "test": "Caco-2 transepithelial transport experiment",
  "assay_type": "in vitro ADME, human",
  "settings": "20 µM",
  "method": "The transport experiment using Caco-2 monolayer was performed according to the criteria in our laboratory as previously reported with slight modification. Briefly, the cell monolayers were prepared by seeding 400,000 cells onto a polycarbonate insert, which has a surface area and pore size of 4.2 cm^2 and 3 μm, respectively (Nunc™, Thermo Fisher Scientific, Waltham, MA, USA). Cells were maintained in a humidified atmosphere at 37 °C (90% humidity and 5% CO2) and fed every other day. After 19 to 22 days post-seeding, the cell monolayers were used in the experiments. Before the experiment, the monolayers were quickly washed twice with pre-warmed HBSS at pH 7.4 (37 °C). The integrity of each monolayer was then verified by measuring the transepithelial electrical resistance (TEER) using a Millicell® ERS meter (Millipore, Bedford, MA, USA), and layers with TEER values less than 400 Ω/cm^2 relative to that of the blank insert were discarded. Then, the monolayers were incubated with the HBSS buffer at 37 °C for 1 h, and the incubation buffer was then aspirated. The test compounds were dissolved in HBSS at pH 6 to obtain final concentrations for the individual compounds (20 μM), mixture (20 μM) and MSKE (0.25 mg/mL), which were then loaded onto the A or B side (2.6 mL) as the donor side. A 2.6 mL aliquot of HBSS at pH 6 without the test compounds was loaded into the other side as the receiver side. After incubation at 37 °C, 0.6 mL of sample was collected from the receiver side at indicated times (60, 120, 180 and 240 min), and the same volume of receiver medium was replaced after each sampling. At the end of the experiment, the cells were washed twice with ice-cold HBSS at pH 6. The cells in each well were then collected and resuspended in 600 μL of HBSS at pH 6, and sonicated in an ice water bath at an output of 9 W for 30 min to obtain the cell lysates. The lysate was divided into the following aliquots: (1) 20 μL for quantitative protein assessment using a BCA™ protein assay kit and (2) 580 μL for quantitative test compounds. The samples collected from the transport study were stored at −20 °C until the UPLC or LC–MS/MS analysis. The experiments were performed in triplicate.\nThe apparent permeability coefficient (Papp, cm/s) of each compound was calculated according to the following equation (Equation (1)): (1) Papp= dQ/dt×1/AC0 where dQ/dt is the compound permeation rate (nmol/s), A denotes the membrane surface area, and C0 is the initial concentration on the donor side (µM). The efflux ratio was calculated according to the following equation (Equation (2)): (2) Efflux ratio= Papp BA(mean)/Papp AB(mean) where Papp BA (mean) and Papp AB (mean) are the average apparent permeability coefficients of each compound from side B to side A, and from side A to side B, respectively.",
  "data": [
    {"compound": "O=C(O)c1cc(O)c(O)c(O)c1", "note": "[GA, Gallic acid]", "values": [
      {"measurement": "accumulation in the cells (cellular uptake)", "setting": "after individual bi-directional transport across Caco-2 monolayer", "result": "could not be detected"},
      {"measurement": "Papp B to A", "setting": "human, Caco-2, 240 min, pH 6", "result": "1.87 ± 0.47 ×10^−6 cm/s"}
    ]}
  ]
}
